Data as given in patent publication US6852503B1, “Compositions and methods for utilizing mixed substrate solutions of luminols and dioxetanes” (Pierce Biotechnology, Inc., priority 2001, dated 2005).

Legend:
alkaline phosphatase = alkaline phosphatase (Bos taurus, UniProt P19111); test: Effect of peroxidase enhancers on observed alkaline phosphatase activity in dioxetane formulation containing PBTBQ; assay type: biochemical; conditions: for Response, Percent: 33.3 pg alkaline phosphatase, 30 minutes, net signal relative to control solution (CDP-Star plus Nitroblock II) set to 100%; for enhancement of the observed phosphatase activity: relative to control solution
Sequence of alkaline phosphatase (P19111 20-506 limits assumed): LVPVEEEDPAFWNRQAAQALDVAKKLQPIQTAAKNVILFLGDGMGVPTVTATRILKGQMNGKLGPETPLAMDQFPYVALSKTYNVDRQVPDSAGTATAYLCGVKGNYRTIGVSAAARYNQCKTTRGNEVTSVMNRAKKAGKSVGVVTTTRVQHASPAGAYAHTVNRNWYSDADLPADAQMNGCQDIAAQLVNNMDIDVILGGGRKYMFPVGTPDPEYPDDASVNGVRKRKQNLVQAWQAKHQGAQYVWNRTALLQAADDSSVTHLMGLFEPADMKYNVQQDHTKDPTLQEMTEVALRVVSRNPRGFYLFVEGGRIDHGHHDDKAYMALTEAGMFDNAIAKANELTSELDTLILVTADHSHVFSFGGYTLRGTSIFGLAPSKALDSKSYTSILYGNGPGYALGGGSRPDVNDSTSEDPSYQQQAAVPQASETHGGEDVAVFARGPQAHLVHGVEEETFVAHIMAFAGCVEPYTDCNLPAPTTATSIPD
Experimental: (§1) A variety of known enhancers of peroxidase activity were tested for their effect on the observed alkaline phosphatase activity in a dioxetane formulation containing the PBTBQ alkaline phosphatase enhancement agent. […] 10 μl of TBS served as a background control. 40 mM stock solutions as ws-PT, ws-PT-N-C4-S-C2Cl, and ws-PT Plus (CP-Br) were prepared in water. A 50 mM solution of DMAP was prepared in water. A 20 mM ws-PT Plus (MPA Cl) was prepared in water. 40 mM solutions of MPT and CPPT were prepared in methanol. (See Table 3 for acronym identification of these peroxidase enhancers, some of which are substantially water-soluble(ws).) The control solution was prepared by mixing 2.85 ml of CDP-Star RTU (Tropix Product No. MS100R) with 0.15 ml of NitroBlock II (Tropix Product No. LNX200). For the test solutions, 112 μl of the peroxidase enhancer stock solutions were added to 3 ml of the control solution in the case of the ws-PT, MPT, ws-PT-NC4S, ws-PT-Plus (CP-Br), or CPPT; for the ws-PT-Plus (MPS-C) 224 μl of the stock was added to 3 ml of the control solution; for the DMAP, 150 μl of the stock was added to 3 ml of the control solution; for the test solution containing DMAP and ws-PT, 150 μl of the DMAP stock and 112 μl of the ws-PT stock was added to 3 ml of the control solution.
To the wells of the microplate containing the alkaline phosphatase aliquots, the control and test formulations were added at 100 μl per well, mixed for approximately one minute, and allowed to react for 30 minutes at which time the chemiluminescent signal was measured on a Berthold EGG Luminometer using a 0.1 second integration time. Table 3 illustrates the relative signal intensities obtained using the response from the control solution set to 100%. The net signal of each solution (background subtracted) was used for these calculations. […] Consequently, the relative response factors for alkaline phosphatase and peroxidase activity to each other in the present invention can be modulated by the choice of the peroxidase enhancer used in the substrate solution formulation of this invention.

[1] = Visual appearance (flocculation) of test solutions; assay type: physicochemical; conditions: enhancer stock added to CDP-Star RTU/NitroBlock II control solution
Experimental: as §1

Compound	Response, Percent (alkaline phosphatase) [%]	enhancement of the observed phosphatase activity (alkaline phosphatase)	appearance of test solution [1]
CN1c2ccccc2Sc2ccccc21 [MPT, 10-methyl-10H-phenothiazine]	198	significant enhancement	visible flocculation
O=S(=O)([O-])CCCCN1c2ccccc2Sc2ccc(Cl)cc21.[Na+] [ws-PT—N—C4S—C2—Cl, Sodium 4-(2-chlorophenothiazin-10-yl)butane-1-sulfonate]	218	significant enhancement	
C[N+](C)(C)CCCN1c2ccccc2Sc2ccc(Cl)cc21.[Br-] [ws-PT Plus (CP—Br^−), [3-(2-chlorophenothiazin-10-yl)-propyl]trimethyl-ammonium bromide]	85		
CNC.c1ccncc1 [DMAP, Dimethylamine pyridine]	99		
O=S(=O)([O-])CCCN1c2ccccc2Sc2ccccc21.[Na+] [ws-PT, Sodium (3-phenothiazine-10-yl)-propane-1-sulfonate]	207	significant enhancement	visible flocculation
O=C(O)CCCN1c2ccccc2Sc2ccccc21 [CPPT, 4-(phenothiazin-10-yl)butanoic acid]	104		
C[N+](C)(C)CCCN1c2ccccc2Sc2ccccc21.[Cl-] [ws-PT Plus (MPA^+Cl^−), Trimethyl-(3-phenothiazin-10-yl-propyl)ammonium chloride]	70		
